In assay [1] the target is Heat shock protein HSP 90-alpha (Homo sapiens, UniProt P07900). In kind it is functional, organism-based.
Assay [2] deals with T1, Heat shock factor protein 1 (Mus musculus, UniProt P38532).
T1 sequence (P38532 whole entry): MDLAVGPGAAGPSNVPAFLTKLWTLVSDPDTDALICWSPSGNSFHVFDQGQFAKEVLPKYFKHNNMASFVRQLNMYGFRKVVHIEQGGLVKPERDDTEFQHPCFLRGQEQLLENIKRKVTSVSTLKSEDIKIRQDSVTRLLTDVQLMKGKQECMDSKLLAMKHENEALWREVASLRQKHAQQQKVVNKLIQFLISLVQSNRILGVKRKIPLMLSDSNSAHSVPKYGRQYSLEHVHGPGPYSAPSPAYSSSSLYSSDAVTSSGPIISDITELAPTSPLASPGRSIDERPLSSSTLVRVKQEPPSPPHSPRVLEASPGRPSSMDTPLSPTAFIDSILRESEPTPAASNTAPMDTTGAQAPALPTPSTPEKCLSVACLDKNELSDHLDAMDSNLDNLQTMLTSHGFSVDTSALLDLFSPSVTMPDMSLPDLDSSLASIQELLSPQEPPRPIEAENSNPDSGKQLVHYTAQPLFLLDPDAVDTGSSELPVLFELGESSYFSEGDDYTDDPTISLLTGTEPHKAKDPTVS
The assay can be described thus: HSF1 potentiators in luciferase reporter cells, confirmation, cell-based, NIH3T3, luminescence, dose retest (AID 435004).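 Note: stress induced by proteasome inhibitor MG132 added 30 min after compound; luciferase reporter driven by HSF1 response element in NIH3T3 cells; actives raise luminescence as potentiators of the MG132 stress response.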 The format is functional.

Assay [3] deals with CHO. In words: cytotoxicity in TLR9-MyD88 CHO cells, dose response, cytotoxicity control for TLR9-MyD88 binding inhibitor project, cell-based, luminescence (AID 588339).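 Note: CHO cells stably coexpressing TLR9 and MyD88 fusions from primary screen; compound exposure lasted 48 hours before viability readout.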 In kind it is functional, hamster. The conditions noted are these: Cricetulus griseus.
A short description of assay [4]: control 3'UTR Renilla luciferase suppression, dose response, counter-screen for Shn3 inhibitor project, cell-based, Clone20-Shn3RL, cherry-picked (AID 624133). The format is functional.
Assay [5] has as its target T2, Microphthalmia-associated transcription factor (Homo sapiens, UniProt O75030).
T2 sequence (O75030 whole entry): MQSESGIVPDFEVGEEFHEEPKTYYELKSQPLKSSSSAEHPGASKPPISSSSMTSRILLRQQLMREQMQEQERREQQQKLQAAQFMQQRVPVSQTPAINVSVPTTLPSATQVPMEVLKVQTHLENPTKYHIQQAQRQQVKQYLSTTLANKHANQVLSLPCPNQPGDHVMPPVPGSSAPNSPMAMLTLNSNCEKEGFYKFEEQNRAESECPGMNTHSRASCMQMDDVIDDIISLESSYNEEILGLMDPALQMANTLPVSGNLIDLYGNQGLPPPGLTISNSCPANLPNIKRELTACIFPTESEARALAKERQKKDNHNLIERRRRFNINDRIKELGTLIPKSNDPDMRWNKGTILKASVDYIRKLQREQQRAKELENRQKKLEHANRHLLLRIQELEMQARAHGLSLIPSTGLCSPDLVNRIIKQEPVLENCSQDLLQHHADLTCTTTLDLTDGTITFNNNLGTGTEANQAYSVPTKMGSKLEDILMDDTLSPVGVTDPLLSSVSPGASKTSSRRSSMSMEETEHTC
The assay can be described thus: TRPM1 promoter luciferase signal decrease, dose response, MITF inhibitor project, cell-based, SK-MEL-5, cherry-picked, set 3 (AID 493073).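 Note: SK-MEL-5 melanoma cells with luciferase driven by the MITF target TRPM1 promoter.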 The format is functional.

The target in assay [6] is Paired box protein Pax-8 (Homo sapiens, UniProt Q06710). The assay can be described thus: inhibitors of PAX8-driven TPO luciferase reporter, dose response, RMG-I cells, cherry-pick (AID 687027).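 Note: luciferase reporter driven by Pax8 target thyroperoxidase promoter measured by SteadyGlo luminescence.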 In kind it is functional, cell-based.
Assay [7] is described as follows: Shn3 3'UTR reporter inhibitors, dose response, cell-based, Clone20 osteoblasts, firefly luciferase, cherry-picked (AID 624132).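 Note: firefly luciferase luminescence from reporter carrying the Shn3 3'UTR in osteoblasts.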 The format is functional.
The nature of assay [8]: HepG2 cell cytotoxicity, dose response, cytotoxicity control for Shn3 inhibitor project, CellTiter-Glo, cherry-picked (AID 624134). In kind it is functional, cell-based.
A short description of assay [9]: non-specific cell cytotoxicity, dose response, cytotoxicity control for PAX8 inhibitor project, plate reader, dry powder samples (AID 743021). The format is functional, cell-based.
A short description of assay [10]: cytotoxicity in HEK-293T cells, dose response, cytotoxicity control for TCR NF-kB inhibitor project, luminescence, T-cell screen hits (AID 489026).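 Note: cells exposed to compound about 14 hours before the viability readout.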 In kind it is functional, cell-based.
The subject of assay [11] is BJ. The assay can be described thus: cytotoxicity toward Ras-transformed BJeLR fibroblasts, dose response, cell-based, alamar blue fluorescence, cherrypicked samples (AID 2631).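 Note: confirmatory dose-response assay in RAS-dependent BJ fibroblasts engineered with TERT, LT and ST, with cytotoxicity read by fluorescence.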 The format is functional. The conditions noted are these: Homo sapiens.
Assay [12] concerns BJ. In words: cells. The format is functional, cell-based. The conditions noted are these: Homo sapiens.
Assay [13] is described as follows: cytotoxicity toward DRD oncogenic fibroblasts, dose response, cell-based, non-viral oncogenic, luminescence (AID 1934). The format is functional. The conditions noted are these: Homo sapiens.
The test system of assay [14] is BJ. The assay can be described thus: cytotoxicity toward BJ-TERT-LT-ST fibroblasts, dose response, cell-based, RAS-independent, luminescence (AID 1935).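 Note: BJ fibroblasts immortalized with TERT plus LT and ST oncogenes.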 In kind it is functional. The conditions noted are these: Homo sapiens.
Assay [15] in a line: inhibitors of firefly luciferase expression or activity, dose response, H4 neuroglioma cells, luminescence (AID 1990). In kind it is functional, cell-based.
Assay [16] is described as follows: microbe, parasite or virus in culture. The note with it: Mycobacterium tuberculosis. The format is functional.
The nature of assay [17]: inhibitors of SNCA 5'UTR-driven reporter translation, confirmation, H4 neuroglioma cells, luminescence (AID 1988). The format is functional, cell-based.
Assay [18] relates to BJ. The assay can be described thus: cytotoxicity toward BJ-TERT fibroblasts, dose response, cell-based, RAS-independent, luminescence (AID 1933). In kind it is functional. The conditions noted are these: Homo sapiens.
Assay [19] in a line: Luminescence Cell-Based Dose Response HTS to Identify Inhibitors of 5'UTR Stem-Loop Driven Prion Protein mRNA Translation in H4 Neuroglioblastoma Cells. [Related pubchem assays: 1827 (Project Summary), 1813 (Primary HTS)]. In kind it is functional.
Assay [20] can be described thus: HEp-2 cell cytotoxicity, dose response, cytotoxicity control for RSV inhibitor project, HTS (AID 2410). The format is functional. The note with it: human respiratory syncytial virus.

Six molecules from ChEMBL document CHEMBL1201862, “PubChem BioAssay data set” (2004) can be followed below.

Active and inactive are the calls of the source. A value given as a limit tells only on which side of the number the result lay.

Sequence of Paired box protein Pax-8 (Q06710 whole entry): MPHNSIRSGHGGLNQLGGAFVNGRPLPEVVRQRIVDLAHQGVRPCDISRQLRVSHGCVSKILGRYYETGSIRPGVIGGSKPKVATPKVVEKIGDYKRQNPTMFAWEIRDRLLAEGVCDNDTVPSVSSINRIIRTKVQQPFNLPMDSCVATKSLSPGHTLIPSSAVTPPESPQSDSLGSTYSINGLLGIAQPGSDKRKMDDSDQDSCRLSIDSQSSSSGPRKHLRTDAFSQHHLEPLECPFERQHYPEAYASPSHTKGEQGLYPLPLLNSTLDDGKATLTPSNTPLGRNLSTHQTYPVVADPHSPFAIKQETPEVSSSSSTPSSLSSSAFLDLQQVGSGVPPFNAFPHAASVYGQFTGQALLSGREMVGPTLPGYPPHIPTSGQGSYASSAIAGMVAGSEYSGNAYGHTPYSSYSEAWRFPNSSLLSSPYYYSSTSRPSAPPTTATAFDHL

On to `O=C(c1ccc2c(=O)n(C3CCCC3)c(=S)[nH]c2c1)N1CCc2ccccc21`, for which, in [1], the AC50 was 3.49 µM (active). The EC50 in assay [2] was > 260 µM (inactive).
As for `CC1(C(=O)c2ccccc2)C2c3c(ccc4ccccc34)OC(=O)C21C(=O)N1CCOCC1` (stereo not given), the AC50 in assay [1] was 4.17 µM (active).
Turning to `CS(=O)(=O)c1ccc(C(=O)OCC(=O)NCc2cccs2)cc1[N+](=O)[O-]`, the IC50 in assay [3] was 4.83 µM (active). In addition, the AC50 in [4] is 13.4 µM (active); in assay [5], 11.7 µM (active); in assay [6], 14 µM (active); in assay [7], 2.07 µM (active); in assay [8] it was 62.3 µM (active); in assay [9], 26 µM (active).
As to `Cc1c(CCCl)c(Cl)n2c(nc3ccccc32)c1C#N`, the AC50 is 2.98 µM (active) in [4], 0.912 µM (active) in [7], 8.13 µM (active) in assay [8] and 3.86 µM (active) in assay [1].
Consider `CCCCOc1ccc(Br)cc1/C(C)=N/NC1=NCCN1`, for which the IC50 in assay [10] was 46.8 µM (inactive). For the same molecule, the EC50 in [11] was 0.619 µM (inconclusive); in assay [12], 8.49 µM (inconclusive); in assay [13], 6.08 µM (active); in assay [14], 6.41 µM (inconclusive); in assay [15], 4.71 µM (inconclusive); in [17], 3.86 µM (active). In addition, the concentration for a half-maximal effect (EC50) was 3.18 µM (inconclusive) in [18] and 4.92 µM (active) in assay [19]. Also, the CC50 in assay [16] was 8.31 µM (active).
With `C(=N\Nc1nc2ccccc2[nH]1)/c1ccc2ncccc2c1`, the EC50 is > 133 µM (inactive) in assay [11]; 2.75 µM (inconclusive) in assay [12]; 2.32 µM (inconclusive) in assay [13]; 30.7 µM (active) in [14]; 10.8 µM (active) in assay [18]. The CC50 in assay [20] was 2.99 µM (active).
